Earlier results on one compound are cited in patent publication US20070225367A1, “Composition for beneficially influencing Alzheimer's disease and/or for Alzheimer's prophylaxis” (Clariant International Ltd, priority 2006, published 2007).

For one data set, the target named is β-amyloid aggregation (Homo sapiens, UniProt P05067). The settings on record: in vitro.
Another data set deals with β-amyloid levels. To be noted: oral administration, APP transgenic mice.

Each structure is given as a SMILES string.

β-amyloid aggregation, sequence (P05067 672-713 limits assumed): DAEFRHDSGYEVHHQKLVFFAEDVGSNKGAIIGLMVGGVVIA

Turning to `[Cu]` [copper], the “effect on β-amyloid aggregation” value on β-amyloid aggregation is listed as “inhibitory effect”. Further, the β-amyloid levels result in the data set with β-amyloid levels is reported as “reduced”.
